In brackets after ≈: the same amount, converted by molar mass.
How the values were obtained:
[1] = test system: Saccharomyces cerevisiae; experiment: Antimicrobial activity against yeast Sc7; assay type: functional
[2] = test system: M109; experiment: Cytotoxicity against mouse M109 cells; assay type: functional, cell-based

| Structure (SMILES) | IC12 [1] | IC50 [2] |
| --- | --- | --- |
| C/C=C1\C(=O)O[C@]23C=C[C@@H]4C(C(=O)OC)=CO[C@H](O[C@@H]12)[C@@H]43 [ISOPLUMERICIN] | 42 µg/mL | 25 µg/mL (≈ 86.1 µM) |
| C/C=C1/C(=O)O[C@]23C=C[C@@H]4C(C(=O)OC)=CO[C@H](O[C@@H]12)[C@@H]43 [PLUMERICIN] | 74 µg/mL | 100 µg/mL (≈ 345 µM) |
